What was measured:
[1] = biological target: RdRp (Nsp12 domain) (Severe acute respiratory syndrome coronavirus 2, UniProt P0DTD1); assay: biochemical; format: binding, SARS-CoV-2
[2] = test system: SARS-CoV-2; conditions: in vivo; cited from earlier work

Compound | binding to Nsp12 (in words) [1] | other results
Cc1ccc(C(=O)Nc2ccc(S(=O)(=O)O)c3cc(S(=O)(=O)O)cc(S(=O)(=O)O)c23)cc1NC(=O)c1cccc(NC(=O)Nc2cccc(C(=O)Nc3cc(C(=O)Nc4ccc(S(=O)(=O)O)c5cc(S(=O)(=O)O)cc(S(=O)(=O)O)c45)ccc3C)c2)c1 [Suramin] |  | Kd [1]: 827 ± 306 nM
FC(F)(F)c1ccc2nnc(CNC(=O)c3ccc4 C(=O)N5CCC-CCC5=Nc4c3)n2c1 | led to Nsp12 aggregation, so no KD could be determined | 
Cc1ccc(NC(=O)c2ccc(nc2O)C2CC2)c(O)c1 | led to Nsp12 aggregation, so no KD could be determined | 
N#C[C@@]1(c2ccc3c(N)ncnn23)O[C@H](COP(=O)(O)OP(=O)(O)OP(=O)(O)O)[C@@H](O)[C@H]1O [GS-443902] | could not detect binding | 
Nc1nnnn1-c1cccc(c1)C(=O)NCc1cc(F)ccc1Oc1ccc(F)c-c(Cl)c1 | led to Nsp12 aggregation, so no KD could be determined | 
Cn1cnc(Cn2c(=O)[nH]/c(=N\c3cc4cn(C)nc4cc3Cl)n(Cc3cc(F)c(F)cc3F)c2=O)n1 [Ensitrelivir] |  | decrease viral clearance [2]: 50 h
